For 33 molecules, inhibition results are on record in patent US20090118332A1, “Therapeutic Agents - 551” (AstraZeneca AB, priority 2006, published 2009).

The target of this assay is T1, human Fatty Acid Synthase (Homo sapiens, UniProt P49327).
T1 construct: made in house
The experiment in a line: Human FAS enzyme assay (decrease in NADPH fluorescence). The format is biochemical. Conditions: % inhibition at a concentration of 100 μmolar. In outline:
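In-house human FAS was preincubated with compound and NADPH for 15 min at room temperature in 0.1 M Tris pH 7.5 with EDTA, glutathione and BSA. Malonyl CoA and acetyl CoA (500 μM and 150 μM in the added mix) were then added for 60 min. IC50 came from time-zero-subtracted NADPH fluorescence (340/460 nm).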

As a reminder, the inhibition is the relative decrease from the control value, in per cent.

T1 sequence (P49327 whole entry): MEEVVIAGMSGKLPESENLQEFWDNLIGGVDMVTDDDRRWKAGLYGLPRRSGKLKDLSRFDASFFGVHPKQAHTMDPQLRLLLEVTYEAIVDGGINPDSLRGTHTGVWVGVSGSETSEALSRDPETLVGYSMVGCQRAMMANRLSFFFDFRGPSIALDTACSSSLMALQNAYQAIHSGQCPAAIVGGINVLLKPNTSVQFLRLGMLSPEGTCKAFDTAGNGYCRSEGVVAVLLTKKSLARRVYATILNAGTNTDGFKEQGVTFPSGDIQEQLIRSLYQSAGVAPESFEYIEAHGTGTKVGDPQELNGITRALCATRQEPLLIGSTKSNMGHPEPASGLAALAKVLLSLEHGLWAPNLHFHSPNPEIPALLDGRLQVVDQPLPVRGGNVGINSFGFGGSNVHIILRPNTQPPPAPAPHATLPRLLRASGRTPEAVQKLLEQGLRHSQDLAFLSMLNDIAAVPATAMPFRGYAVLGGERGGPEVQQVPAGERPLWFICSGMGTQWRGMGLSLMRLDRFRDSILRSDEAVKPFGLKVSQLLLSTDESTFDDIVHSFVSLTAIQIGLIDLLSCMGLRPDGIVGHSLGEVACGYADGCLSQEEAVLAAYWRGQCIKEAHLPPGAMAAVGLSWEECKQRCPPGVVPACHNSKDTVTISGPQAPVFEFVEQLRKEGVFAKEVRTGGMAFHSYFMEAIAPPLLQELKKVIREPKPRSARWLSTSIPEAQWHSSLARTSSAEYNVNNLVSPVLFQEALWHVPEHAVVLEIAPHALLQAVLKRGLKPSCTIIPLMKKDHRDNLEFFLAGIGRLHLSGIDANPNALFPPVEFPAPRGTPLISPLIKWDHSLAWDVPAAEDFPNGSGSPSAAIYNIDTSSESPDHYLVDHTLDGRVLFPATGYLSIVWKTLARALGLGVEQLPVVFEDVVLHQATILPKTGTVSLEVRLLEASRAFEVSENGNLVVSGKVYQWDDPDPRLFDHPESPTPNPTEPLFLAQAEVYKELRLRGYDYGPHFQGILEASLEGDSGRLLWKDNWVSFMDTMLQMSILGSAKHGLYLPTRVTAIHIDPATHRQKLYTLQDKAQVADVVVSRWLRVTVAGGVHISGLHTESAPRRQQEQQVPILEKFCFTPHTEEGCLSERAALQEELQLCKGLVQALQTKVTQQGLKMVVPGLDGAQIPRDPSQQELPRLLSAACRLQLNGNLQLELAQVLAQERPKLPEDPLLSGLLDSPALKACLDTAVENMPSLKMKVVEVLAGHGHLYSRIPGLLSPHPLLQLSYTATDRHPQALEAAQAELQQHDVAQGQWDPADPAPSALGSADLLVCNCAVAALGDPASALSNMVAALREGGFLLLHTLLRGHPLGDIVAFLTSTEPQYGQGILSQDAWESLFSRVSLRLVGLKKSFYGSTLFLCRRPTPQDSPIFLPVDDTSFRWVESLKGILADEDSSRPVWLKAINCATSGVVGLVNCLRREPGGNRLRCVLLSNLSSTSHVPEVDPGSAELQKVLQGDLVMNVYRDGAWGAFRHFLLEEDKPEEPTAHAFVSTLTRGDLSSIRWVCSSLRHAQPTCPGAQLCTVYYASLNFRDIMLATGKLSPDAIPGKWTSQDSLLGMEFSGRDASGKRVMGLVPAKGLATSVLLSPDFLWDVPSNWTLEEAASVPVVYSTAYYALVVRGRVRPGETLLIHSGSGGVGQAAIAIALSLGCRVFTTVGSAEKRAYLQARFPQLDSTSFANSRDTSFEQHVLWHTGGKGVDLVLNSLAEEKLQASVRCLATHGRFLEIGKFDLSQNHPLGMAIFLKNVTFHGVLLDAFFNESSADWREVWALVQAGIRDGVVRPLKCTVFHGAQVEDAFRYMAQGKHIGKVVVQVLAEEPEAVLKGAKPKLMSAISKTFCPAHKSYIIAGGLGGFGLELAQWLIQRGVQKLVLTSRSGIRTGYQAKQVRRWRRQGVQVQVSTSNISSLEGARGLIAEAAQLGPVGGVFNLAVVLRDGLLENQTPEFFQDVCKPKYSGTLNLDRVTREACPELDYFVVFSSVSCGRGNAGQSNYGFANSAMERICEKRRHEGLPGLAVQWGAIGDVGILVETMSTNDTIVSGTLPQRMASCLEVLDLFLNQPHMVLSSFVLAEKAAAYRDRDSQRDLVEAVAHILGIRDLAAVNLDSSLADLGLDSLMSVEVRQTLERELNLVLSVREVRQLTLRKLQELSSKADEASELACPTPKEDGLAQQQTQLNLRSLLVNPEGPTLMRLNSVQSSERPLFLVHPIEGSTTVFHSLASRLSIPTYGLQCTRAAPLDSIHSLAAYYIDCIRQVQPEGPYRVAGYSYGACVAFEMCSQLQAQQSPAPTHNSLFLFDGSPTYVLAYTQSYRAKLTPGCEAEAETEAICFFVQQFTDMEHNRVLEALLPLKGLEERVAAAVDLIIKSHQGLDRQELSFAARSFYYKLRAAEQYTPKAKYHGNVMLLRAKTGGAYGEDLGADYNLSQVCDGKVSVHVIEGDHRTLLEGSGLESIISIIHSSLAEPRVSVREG

As for `COC(=O)CCNC(=O)Nc1cc(C(=O)N2CCC(c3ccc(C#N)cc3)CC2)ccc1C` [Example 45, methyl 3-[[5-[4-(4-cyanophenyl)piperidine-1-carbonyl]-2-methyl-phenyl]carbamoylamino]propanoate], the inhibition at 100 µM is 91.8%.

In the case of `CC(C)NC(=O)Nc1cccc(C(=O)N2CCC(c3ccc(C#N)cc3)CC2)c1` [Example 46, 3-[3-[4-(4-cyanophenyl)piperidine-1-carbonyl]phenyl]-1-propan-2-yl-urea], the inhibition at 100 µM was 90.3%.

On to `Cc1ccc(NC(=O)NCc2cccc(C#N)c2)cc1C(=O)N1CCC(c2ccc(C#N)cc2)CC1` [Example 47, 3-[(3-cyanophenyl)methyl]-1-[3-[4-(4-cyanophenyl)piperidine-1-carbonyl]-4-methyl-phenyl]urea], for which the inhibition at 100 µM was determined as 77.4%.

In the case of `Cc1ccc(NC(=O)N[C@H]2CC[C@@H](O)CC2)cc1C(=O)N1CCC(c2ccc(C#N)cc2)CC1` [Example 48, 1-[3-[4-(4-cyanophenyl)piperidine-1-carbonyl]-4-methyl-phenyl]-3-cis-(4-hydroxycyclohexyl)urea], the inhibition at 100 µM came to 93.7%.

As for `Cc1ccc(NC(=O)N[C@H]2CC[C@H](O)CC2)cc1C(=O)N1CCC(c2ccc(C#N)cc2)CC1` [Example 49, 1-[3-[4-(4-cyanophenyl)piperidine-1-carbonyl]-4-methyl-phenyl]-3-trans-(4-hydroxycyclohexyl)urea], the inhibition at 100 µM amounted to 98.1%.

In the case of `Cc1ccc(C(=O)N2CCC(O)(c3ccc(C#N)cc3)CC2)cc1NC(=O)NC(C)C` [Example 50, 1-[5-[4-(4-cyanophenyl)-4-hydroxy-piperidine-1-carbonyl]-2-methyl-phenyl]-3-propan-2-yl-urea], the inhibition at 100 µM was found to be 81.2%.

As to `Cc1ccc(C(=O)N2CCC(c3ccc(C#N)cc3)CC2)cc1NC(=O)NCCCC(=O)OC(C)(C)C` [Example 51, tert-butyl 4-[[5-[4-(4-cyanophenyl)piperidine-1-carbonyl]-2-methyl-phenyl]carbamoylamino]butanoate], the inhibition at 100 µM came to 101%.

On to `Cc1ccc(C(=O)N2CCC(c3ccc(C#N)cc3)CC2)cc1NC(=O)NCc1ccccn1` [Example 52, 1-[5-[4-(4-cyanophenyl)piperidine-1-carbonyl]-2-methyl-phenyl]-3-(pyridin-2-ylmethyl)urea], for which the inhibition at 100 µM is 94.4%.

Take `CCC(CC)NC(=O)Nc1cc(C(=O)N2CCC(c3ccc(C#N)cc3)CC2)ccc1C` [Example 53, 3-[5-[4-(4-cyanophenyl)piperidine-1-carbonyl]-2-methyl-phenyl]-1-pentan-3-yl-urea]: the inhibition at 100 µM worked out at 90.8%.

Regarding `Cc1cccc(CNC(=O)Nc2cc(C(=O)N3CCC(c4ccc(C#N)cc4)CC3)ccc2C)c1` [Example 54, 3-[5-[4-(4-cyanophenyl)piperidine-1-carbonyl]-2-methyl-phenyl]-1-[(3-methylphenyl)methyl]urea], the inhibition at 100 µM came to 92.2%.

Take `CC(=O)NCCNC(=O)Nc1cc(C(=O)N2CCC(c3ccc(C#N)cc3)CC2)ccc1C` [Example 55, N-[2-[[5-[4-(4-cyanophenyl)piperidine-1-carbonyl]-2-methyl-phenyl]carbamoylamino]ethyl]acetamide]: the inhibition at 100 µM was found to be 93.2%.

Take `Cc1ccc(C(=O)N2CCC(c3ccc(C#N)cc3)CC2)cc1NC(=O)NCc1ccc(F)c(F)c1` [Example 56, 1-[5-[4-(4-cyanophenyl)piperidine-1-carbonyl]-2-methyl-phenyl]-3-[(3,4-difluorophenyl)methyl]urea]: the inhibition at 100 µM worked out at 105%.

Take `Cc1ccc(C(=O)N2CCC(c3ccc(C#N)cc3)CC2)cc1NC(=O)NCCc1ccc(S(N)(=O)=O)cc1` [Example 57, 1-[5-[4-(4-cyanophenyl)piperidine-1-carbonyl]-2-methyl-phenyl]-3-[2-(4-sulfamoylphenyl)ethyl]urea]: the inhibition at 100 µM was 96.8%.

As for `Cc1ccc(C(=O)N2CCC(c3ccc(C#N)cc3)CC2)cc1NC(=O)NCC(N)=O` [Example 58, 2-[[5-[4-(4-cyanophenyl)piperidine-1-carbonyl]-2-methyl-phenyl]carbamoylamino]acetamide], the inhibition at 100 µM is 89.9%.

`Cc1ccc(C(=O)N2CCC(c3ccc(C#N)cc3)CC2)cc1NC(=O)NC(C)(C)CNc1ccccc1` [Example 59, 3-(1-anilino-2-methyl-propan-2-yl)-1-[5-[4-(4-cyanophenyl)piperidine-1-carbonyl]-2-methyl-phenyl]urea]: the inhibition at 100 µM worked out at 87.2%.

For `Cc1ccc(C(=O)N2CCC(c3ccc(C#N)cc3)CC2)cc1NC(=O)NCCc1ccccn1` [Example 60, 1-[5-[4-(4-cyanophenyl)piperidine-1-carbonyl]-2-methyl-phenyl]-3-(2-pyridin-2-ylethyl)urea], the inhibition at 100 µM is 95.3%.

With `COc1ccccc1CCNC(=O)Nc1cc(C(=O)N2CCC(c3ccc(C#N)cc3)CC2)ccc1C` [Example 61, 1-[5-[4-(4-cyanophenyl)piperidine-1-carbonyl]-2-methyl-phenyl]-3-[2-(2-methoxyphenyl)ethyl]urea], the inhibition at 100 µM turned out to be 84.8%.

In the case of `Cc1ccc(C(=O)N2CCC(c3ccc(C#N)cc3)CC2)cc1NC(=O)NCCc1ccncc1` [Example 62, 1-[5-[4-(4-cyanophenyl)piperidine-1-carbonyl]-2-methyl-phenyl]-3-(2-pyridin-4-ylethyl)urea], the inhibition at 100 µM amounted to 101%.

For the molecule `Cc1ccc(C(=O)N2CCC(c3ccc(C#N)cc3)CC2)cc1NC(=O)NCCc1cccs1` [Example 63, 1-[5-[4-(4-cyanophenyl)piperidine-1-carbonyl]-2-methyl-phenyl]-3-(2-thiophen-2-ylethyl)urea], the inhibition at 100 µM came to 93.4%.

In the case of `COc1ccc(CCNC(=O)Nc2cc(C(=O)N3CCC(c4ccc(C#N)cc4)CC3)ccc2C)cc1` [Example 64, 1-[5-[4-(4-cyanophenyl)piperidine-1-carbonyl]-2-methyl-phenyl]-3-[2-(4-methoxyphenyl)ethyl]urea], the inhibition at 100 µM stood at 94%.

As for `COc1cccc(CCNC(=O)Nc2cc(C(=O)N3CCC(c4ccc(C#N)cc4)CC3)ccc2C)c1` [Example 65, 1-[5-[4-(4-cyanophenyl)piperidine-1-carbonyl]-2-methyl-phenyl]-3-[2-(3-methoxyphenyl)ethyl]urea], the inhibition at 100 µM turned out to be 99.8%.

Turning to `Cc1ccc(C(=O)N2CCC(c3ccc(C#N)cc3)CC2)cc1NC(=O)NCCc1cccnc1` [Example 66, 1-[5-[4-(4-cyanophenyl)piperidine-1-carbonyl]-2-methyl-phenyl]-3-(2-pyridin-3-ylethyl)urea], the inhibition at 100 µM worked out at 91.5%.

Take `Cc1ccc(C(=O)N2CCC(c3ccc(C#N)cc3)CC2)cc1NC(=O)NCCc1c(C)noc1C` [Example 67, 1-[5-[4-(4-cyanophenyl)piperidine-1-carbonyl]-2-methyl-phenyl]-3-[2-(3,5-dimethyl-1,2-oxazol-4-yl)ethyl]urea]: the inhibition at 100 µM came to 96.9%.

On to `Cc1ccc(C(=O)N2CCC(c3ccc(C#N)cc3)CC2)cc1NC(=O)NCCc1cccc(F)c1` [Example 68, 1-[5-[4-(4-cyanophenyl)piperidine-1-carbonyl]-2-methyl-phenyl]-3-[2-(3-fluorophenyl)ethyl]urea], for which the inhibition at 100 µM stood at 102%.

Consider `Cc1ccc(C(=O)N2CCC(c3ccc(C#N)cc3)CC2)cc1NC(=O)NCCCCNC(=O)OC(C)(C)C` [Example 69, tert-butyl N-[4-[[5-[4-(4-cyanophenyl)piperidine-1-carbonyl]-2-methyl-phenyl]carbamoylamino]butyl]carbamate], for which the inhibition at 100 µM is 87.9%.

Consider `Cc1ccc(C(=O)N2CCC(c3ccc(C#N)cc3)CC2)cc1NC(=O)NCC(C)(C)C` [Example 71, 1-[5-[4-(4-cyanophenyl)piperidine-1-carbonyl]-2-methyl-phenyl]-3-(2,2-dimethylpropyl)urea], for which the inhibition at 100 µM was 94.2%.

`COC(=O)CNC(=O)Nc1cc(C(=O)N2CCC(c3ccc(C#N)cc3)CC2)ccc1C` [Example 72, Methyl 2-[[5-[4-(4-cyanophenyl)piperidine-1-carbonyl]-2-methyl-phenyl]carbamoylamino]acetate]: the inhibition at 100 µM is 80.1%.

Regarding `Cc1ccc(C(=O)N2CCC(c3ccc(C#N)cc3)CC2)cc1NC(=O)N[C@@H](CC(C)C)C(N)=O` [Example 73, (2S)-2-[[5-[4-(4-cyanophenyl)piperidine-1-carbonyl]-2-methyl-phenyl]carbamoylamino]-4-methyl-pentanamide], the inhibition at 100 µM is 78.2%.

Turning to `Cc1ccc(C(=O)N2CCC(c3ccc(C#N)cc3)CC2)cc1NC(=O)NCCCN1CCCC1` [Example 74, 1-[5-[4-(4-cyanophenyl)piperidine-1-carbonyl]-2-methyl-phenyl]-3-(3-pyrrolidin-1-ylpropyl)urea], the inhibition at 100 µM turned out to be 89.6%.

Take `Cc1ccc(C(=O)N2CCC(c3ccc(C#N)cc3)CC2)cc1NC(=O)NCc1ccc(-c2csnn2)cc1` [Example 75, 1-[5-[4-(4-cyanophenyl)piperidine-1-carbonyl]-2-methyl-phenyl]-3-[[4-(thiadiazol-4-yl)phenyl]methyl]urea]: the inhibition at 100 µM was 87.4%.

For `Cc1cc(C)n(CCNC(=O)Nc2cc(C(=O)N3CCC(c4ccc(C#N)cc4)CC3)ccc2C)n1` [Example 76, 1-[5-[4-(4-cyanophenyl)piperidine-1-carbonyl]-2-methyl-phenyl]-3-[2-(3,5-dimethylpyrazol-1-yl)ethyl]urea], the inhibition at 100 µM was found to be 97.5%.

For `Cc1ccc(C(=O)N2CCC(c3ccc(C#N)cc3)CC2)cc1NC(=O)NC1CCOC(C)(C)C1` (stereo not drawn) [Example 77, 1-[5-[4-(4-cyanophenyl)piperidine-1-carbonyl]-2-methyl-phenyl]-3-(2,2-dimethyloxan-4-yl)urea], the inhibition at 100 µM was determined as 89.6%.

As for `Cc1ccc(C(=O)N2CCC(c3ccc(C#N)cc3)CC2)cc1NC(=O)N[C@@H](COC(C)(C)C)C(N)=O` [Example 78, (2S)-2-[[5-[4-(4-cyanophenyl)piperidine-1-carbonyl]-2-methyl-phenyl]carbamoylamino]-3-[(2-methylpropan-2-yl)oxy]propanamide], the inhibition at 100 µM came to 85.7%.
